# In patent US6005099A, “Glucosamine disaccharides, method for their preparation, pharmaceutical composition comprising same, and their use” (priority 1993, dated 1999):
# “Also recorded” adds a separate entry of the source. Counter-ions that a name gives are not always drawn.
# Columns and labels:
# [1] = test system: macrophages of C57BL/6 mice; experiment: Nitric oxide (NO) production in supernatants of macrophages; type: cell-based
# Procedure: Bone marrow was collected from hip, femur and tibia of six week old male C57BL/6 mice.
# After 7 days the mature macrophages were collected and resuspended in Dulbecco modified medium comprising 5% foetal calf serum to a concentration of 7×10^6 cells per ml. This cell suspension was mixed 1:1, (v/v) with samples diluted in the same medium and used in the biological tests performed in microplates with 70,000 cells/well (incubation at 37° C. for 22 hours, 100% humidity and 8% CO2).
# Nitric oxide (NO) is produced by macrophages in response to bacterial infection and in particular LPS. NO seems to have cytostatic and cytotoxic properties. NO is extremely reactive and rapidly converted by oxidation into nitrite and nitrate.
# The nitrite formation was determined using the Griess test (addition of 1:1, (v/v) N-(1-naphthyl)ethylene diamine hydrochloride [1 g/l in water] and p-aminobenzenesulphonamide [10 g/l in 5% H3 PO4 ]). The nitrite concentration in supernatants of activated macrophages was calculated in comparison to NaNO2 standards.
# protease in LAL [2] = experiment: Endotoxicity, chromogenic LAL test; type: biochemical, Limulus polyphemus; conditions: ng LPS per ng product, n = 1-10
# Procedure: (§1) The endotoxicity and the biological activity of disaccharide A (example 1) and of disaccharide B (example 2) were determined and compared to that of lipopolysaccharide originating from Escherichia coli O111:B4 (Sigma, Product No. L3024), lipid A (Sigma, Product No. L5399; used as a starting material in example 4), and 3-O-deacylated lipid A originating from lipid A of Escherichia coli F583 (prepared as in the comparative example), but without purification by HPLC.
# (§2) The endotoxicity was determined in the Limulus amoebocyte lysate (LAL) test. This test is based on the observation that endotoxins induce coagulation of the hemolymph of Limulus polyphemus.
# (§3) The endotoxicity was also measured in the chromogenic test, in which the activation of a protease in LAL by LPS was measured using a chromogen (Ac-Ile-Glu-Ala-Arg-pNA; Bio Whittaker Kit No. 50-650U). The colour formation (liberation of pNA (p-nitroaniline)) was measured at 405 nm.
# (§4) Samples were pre-incubated at 37° C. during 10 minutes and subsequently chromogen-comprising LAL was added. The time required for reaching an optical density of 0.2 at 405 nm was measured. The endotoxin activity was calculated in comparison to a reference curve obtained for LPS standards.
# (§5) The results are expressed in table 3 as: ng LPS per ng product.
# [3] = test system: Limulus amoebocyte lysate (LAL); experiment: Endotoxicity in the limulus amoebocyte lysate (LAL) test (gelification and chromogenic); type: biochemical, Limulus polyphemus
# Procedure: as §1, §2
# (§6) In the gelification test serial dilutions of the compound to be tested were mixed with LAL 1:1, (v/v) (Haemachem Inc., sensitivity LAL 0.06 endotoxin units/ml), and the mixture was incubated for one hour at 37° C. Then gel formation was monitored by measuring the optical density at 405 nm. The last dilution which formed a gel was determined by inverting the reaction microplate. The endotoxin activity in the samples was determined by comparison with dilutions of a lipopolysaccharide standard (1 endotoxin unit=0.1 ng LPS).
# The endotoxicity was also measured in the chromogenic test, in which the activation of a protease in LAL by LPS was measured using a chromogen (Ac-Ile-Glu-Ala-Arg-pNA; Bio Whittaker Kit No. 50-650U). […]
# [4] = test system: Limulus amoebocyte lysate (LAL); experiment: Endotoxicity, LAL gelification test; type: biochemical, Limulus polyphemus; conditions: ng LPS per ng product, n = 2-12
# Procedure: as §1, §2, §6, §5
# protease in LAL [5] = experiment: Endotoxicity, chromogenic LAL test with 0.1 mg/ml bovine serum albumin; type: biochemical, Limulus polyphemus; conditions: n=4 or 6
# Procedure: as §3, §4
# The endotoxicity of the disaccharides E, F and G was determined using the chromogenic LAL test (see infra). However, instead of using 1 mg/ml bovine serum albumin, 0.1 mg/ml has been used. The results (n=4 or 6) were obtained in two series of experiments and are shown hereafter.
# [6] = test system: murine peritoneal macrophages; experiment: Stimulation of nitrite production in murine peritoneal macrophages; type: cell-based; conditions: quantity determined by HPLC absorption vs disaccharide A
# Procedure: The biological activity of the fractions was tested by the stimulation of nitrite production in murine peritoneal macrophages as described hereinbefore.
# The quantity of each analogue in the stock solution was determined from the absorption on HPLC with reference to that of disaccharide A. The fractions show activities of the same order as disaccharide A (FIG. 8). […] The position of the acyloxyacyl, 2 versus 2', has only a minor influence on the activity.
# In order to eliminate the possibility that activity was due to contamination of the samples by other substances such as LPS, disaccharides E, F, G and H were repurified on reversed-phase HPLC and the regions of the HPLC baseline just before and just after the peak were also collected and treated in the same way as the fractions containing the peaks of material. The activity of the peak fractions and the baseline fractions was tested. […] The stimulation of nitrite production is thus specifically associated with the lipid A analogues.
# Solubility in water = type: physicochemical; conditions: sodium salt
structure (smiles),measurement,setting,value
"CCCCCCCCCCCCCC(=O)O[C@H](CCCCCCCCCCC)CC(=O)N[C@H]1[C@H](OC[C@H]2O[C@H](OP(=O)(O)O)[C@H](NC(=O)C[C@H](O)CCCCCCCCCCC)[C@@H](O)[C@@H]2O)O[C@H](CO)[C@@H](OP(=O)(O)O)[C@@H]1O [disaccharide B, 2-Deoxy-6-O-[2-deoxy-2-[(R)-3-tetradecanoyloxytetradecanoylamino]-4-O-phosphono-β-D-glucopyranosyl]-2-[(R)-3-hydroxytetradecanoylamino]-α-D-glucopyranosyl dihydrogenphosphate]",EC50,"[1]; Mus musculus, Macrophage, product concentration corresponding to 50% activity, 22 hours, 37° C.",0.05 µg/mL
same,minimal effective concentration,"[1]; Mus musculus, Macrophage, product concentration corresponding to induced NO activity, 22 hours, 37° C., read-out: NO production: Minimum activity (product concentration)",0.0005 µg/mL
same,NO activity at 50% in nmol of NO2- /ml,[1]; extrapolated from the series dilution curve,5 nmol of NO2- /ml
same,"NO production, in words",[1]; macrophages of C57BL/6 mice,induce NO production of the same order; also recorded: as strongly as lipid A and 3-O-deacylated lipid A
same,NO production: Maximum activity (product concentration),"[1]; product concentration corresponding to induced NO activity, 22 hours, 37° C.",16 µg/mL
same,"Endotoxic activity in LAL, chromogen",protease in LAL [2],0.0008 ng/ng
same,"Endotoxicity in LAL, in words",[3],lowest endotoxicity
same,"Endotoxic activity in LAL, gelification",[4],0.004 ± 0.002 ng/ng
"CCCCCCCCCC[C@H](O)C(=O)O[C@H](CCCCCCCCC)CC(=O)N[C@H]1[C@H](OC[C@H]2O[C@H](OP(=O)(O)O)[C@H](NC(=O)C[C@H](O)CCCCCCCCC)[C@@H](O)[C@@H]2O)O[C@H](CO)[C@@H](OP(=O)(O)O)[C@@H]1O [disaccharide E, 2-Deoxy-6-O-[2-deoxy-2-[(R)-3-[(S)-2-hydroxydodecanoyloxy]-dodecanoylamino]-4-O-phosphono-β-D-glucopyranosyl]-2-[(R)-3-hydroxydodecanoylamino]-α-D-glucopyranosyl dihydrogenphosphate]",Endotoxic activity in LAL,protease in LAL [5],0.000005 ± 0.000002 mg/mg
"CCCCCCCCCC[C@H](O)C(=O)O[C@H](CCCCCCCCC)CC(=O)N[C@H]1[C@@H](OP(=O)(O)O)O[C@H](CO[C@@H]2O[C@H](CO)[C@@H](OP(=O)(O)O)[C@H](O)[C@H]2NC(=O)C[C@H](O)CCCCCCCCC)[C@@H](O)[C@@H]1O [disaccharide F, 2-Deoxy-6-O-[2-deoxy-2-[(R)-3-hydroxydodecanoylamino]-4-O-phosphono-β-D-glucopyranosyl]-2-[(R)-3-[(S)-2-hydroxydodecanoyloxy]-dodecanoylamino]-α-D-glucopyranosyl dihydrogenphosphate]",Endotoxic activity in LAL,protease in LAL [5],0.000025 ± 0.000026 mg/mg
"CCCCCCCCCCCC(=O)O[C@H](CCCCCCCCC)CC(=O)N[C@H]1[C@H](OC[C@H]2O[C@H](OP(=O)(O)O)[C@H](NC(=O)C[C@H](O)CCCCCCCCC)[C@@H](O)[C@@H]2O)O[C@H](CO)[C@@H](OP(=O)(O)O)[C@@H]1O [disaccharide G, 2-Deoxy-6-O-[2-deoxy-2-[(R)-3-dodecanoyloxydodecanoylamino]-4-O-phosphono-β-D-glucopyranosyl]-2-[(R)-3-hydroxydodecanoylamino]-α-D-glucopyranosyl dihydrogenphosphate]",Endotoxic activity in LAL,protease in LAL [5],0.00006 ± 0.00003 mg/mg
"CCCCCCCCCCCC(=O)O[C@H](CCCCCCCCC)CC(=O)N[C@H]1[C@H](OC[C@H]2O[C@H](OP(=O)(O)O)[C@H](NC(=O)C[C@@H](CCCCCCCCC)OC(=O)[C@@H](O)CCCCCCCCCC)[C@@H](O)[C@@H]2O)O[C@H](CO)[C@@H](OP(=O)(O)O)[C@@H]1O [disaccharide H, 2-Deoxy-6-O-[2-deoxy-2-[(R)-3-dodecanoyloxydodecanoylamino]-4-O-phosphono-β-D-glucopyranosyl]-2-[(R)-3-[(S)-2-hydroxydodecanoyloxy]-dodecanoylamino]-α-D-glucopyranosyl dihydrogenphosphate]","Stimulation of nitrite production, in words",[6],most active
CCCCCCCCCCCC(=O)O[C@H](CCCCCCCCCCC)CC(=O)N[C@H]1[C@H](OC[C@H]2O[C@H](OP(=O)(O)O)[C@H](NC(=O)C[C@H](O)CCCCCCCCCCC)[C@@H](O)[C@@H]2O)O[C@H](CO)[C@@H](OP(=O)(O)O)[C@@H]1O [sodium salt],"Solubility in water, in words",Solubility in water,freely soluble in water
same,solubility,Solubility in water,≥ 100 mg/mL
